Eight compounds from US20100069460A1, “1-PHENYL 1-THIO-D-GLUCITOL DERIVATIVE” (TAISHO PHARMACEUTICAL CO., LTD., priority 2006, published 2010) can be followed below.

Usually IC50 stands for the concentration that inhibits the measured activity by half.

The subject of one assay is db/db mice. Kind of assay: Confirmation test for hypoglycemic effect in db/db mice. Format: in vivo. The settings on record: oral gavage, 1 mg/10 mL suspension at 10 mL/kg, decrease in blood glucose AUC (0 to 8 hours) relative to control group. As for the experimental part: The laboratory animals used were db/db mice (CLEA Japan, Inc., male, 7 weeks of age). A test substance was suspended in a 0.5% aqueous carboxymethylcellulose (CMC) solution and adjusted to a concentration of 1 mg/10 mL. On the day of the test, the db/db mice were divided into groups of 6 animals each, such that differences in the mean values and variance of their blood glucose levels were minimized, according to the procedures for blood collection and blood glucose measurement described later. The mice were measured for their body weight. Then, the test substance suspension was administered by oral gavage using a probe for oral administration at a volume of 10 mL/kg. The control group received a 0.5% aqueous CMC solution alone. Blood was collected at 8 points in total: before administration of the test substance (0 hour) and 0.5, 1, 2, 4, 6, 8 and 24 hours after oral administration. The test was performed under ad libitum feeding and drinking conditions.
Blood was collected from the orbital venous sinus of each animal under ether anesthesia using a heparin-coated blood collection tube and measured for its blood glucose level with a Glucose CII-Test Wako (Wako Pure Chemical Industries, Ltd., Japan). To determine the intensity (%) of hypoglycemic effect, casual blood glucose levels measured between 0 and 8 hours in each test group were analyzed by the trapezoidal method to calculate the area under the blood glucose-time curve (AUC). The results are expressed as a decrease in AUC relative to that of the control group.

For the next assay, the target named is T1, human SGLT1 (Homo sapiens, UniProt P13866).
T1 construct: expressed in transfected cells; vector pCMV-tag5A (Stratagene)
T1 sequence (P13866 1-664): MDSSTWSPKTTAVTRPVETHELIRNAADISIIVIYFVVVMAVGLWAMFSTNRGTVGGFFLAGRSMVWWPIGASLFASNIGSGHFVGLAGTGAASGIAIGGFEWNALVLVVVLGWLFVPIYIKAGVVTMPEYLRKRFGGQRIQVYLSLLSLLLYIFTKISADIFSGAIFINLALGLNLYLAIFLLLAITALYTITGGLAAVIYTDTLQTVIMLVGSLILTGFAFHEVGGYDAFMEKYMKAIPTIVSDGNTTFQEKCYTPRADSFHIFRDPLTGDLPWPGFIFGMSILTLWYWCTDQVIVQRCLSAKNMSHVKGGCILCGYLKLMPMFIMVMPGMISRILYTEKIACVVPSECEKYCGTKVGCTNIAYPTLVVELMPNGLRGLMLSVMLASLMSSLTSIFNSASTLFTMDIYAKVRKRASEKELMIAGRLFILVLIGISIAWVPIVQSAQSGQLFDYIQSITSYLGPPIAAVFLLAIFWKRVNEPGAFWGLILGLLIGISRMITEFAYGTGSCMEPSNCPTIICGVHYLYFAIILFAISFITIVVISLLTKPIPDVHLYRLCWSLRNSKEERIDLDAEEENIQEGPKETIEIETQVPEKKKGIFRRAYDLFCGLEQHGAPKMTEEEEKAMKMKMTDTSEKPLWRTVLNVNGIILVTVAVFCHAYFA
Kind of assay: Inhibition test for sodium-dependent sugar uptake in CHO-k1 cells stably expressing human SGLT1. In kind it is cell-based. The settings on record: 0.1 mM [14C]methyl α-D-glucopyranoside uptake, 37° C., 30 minutes. As for the experimental part:
(§1) A human SGLT1 sequence (NM_000343) was reverse-transcribed and amplified from human small intestine mRNA, and then introduced into pCMV-tag5A (Stratagene). Likewise, a human SGLT2 sequence (NM_003041) was prepared from human kidney mRNA in the same manner and introduced into pcDNA3.1+hygro (Invitrogen). The individual cloned sequences were confirmed to be identical with the sequences reported.
(§2) The human SGLT1 and human SGLT2 expression vectors were each transfected into CHO-k1 cells using lipofectamine 2000 (Invitrogen). The cells were cultured in the presence of 500 μg/mL geneticin (SGLT1) or hygromycin B (SGLT2) to select resistant strains and specific activity of sugar uptake in the system shown below was used as an indicator to obtain SGLT-expressing cells.
(§3) The cells stably expressing human SGLT1 or human SGLT2 were used for an inhibition test of sodium-dependent sugar uptake activity.
(§4) The cells were incubated for 20 minutes in 1 mL pretreatment buffer (140 mM choline chloride, 2 mM KCl, 1 mM CaCl2, 1 mM MgCl2, 10 mM HEPES/5 mM Tris, pH 7.4). The pretreatment buffer was removed and replaced with 200 μL uptake buffer containing a test compound (methyl α-D-glucopyranoside (containing [^14C]methyl α-D-glucopyranoside) at 0.1 mM for SGLT1 inhibition and 1 mM for SGLT2 inhibition, 140 mM NaCl, 2 mM KCl, 1 mM CaCl2, 1 mM MgCl2, 10 mM HEPES/5 mM Tris, pH 7.4). Uptake reaction was performed at 37° C. for 30 minutes (SGLT1) or 1 hour (SGLT2). After the reaction, the cells were washed twice with 1 mL washing buffer (10 mM methyl α-D-glucopyranoside, 140 mM choline chloride, 2 mM KCl, 1 mM CaCl2, 1 mM MgCl2, 10 mM HEPES/5 mM Tris, pH 7.4), and then dissolved in a 0.2 M NaOH solution (400 μL). Aquazol 2 (Perkin Elmer) was added and mixed well with each sample, followed by measurement of radioactivity using a liquid scintillation counter (Beckman Coulter) to calculate the amount of sugar uptake. For the control group, uptake buffer containing no test compound was prepared. Moreover, another uptake buffer containing choline chloride instead of NaCl was also prepared for basal uptake.
(§5) Test compounds prepared at 6 appropriate concentrations were used to measure the amount of sugar uptake, and their concentrations required for 50% inhibition of the amount of sugar uptake were calculated as IC50 values, assuming that the amount of sugar uptake in the control group was set to 100%.

The target in the next assay is T2, human SGLT2 (Homo sapiens, UniProt P31639).
T2 construct: expressed in transfected cells; vector pcDNA3.1+hygro (Invitrogen)
T2 sequence (P31639 1-672): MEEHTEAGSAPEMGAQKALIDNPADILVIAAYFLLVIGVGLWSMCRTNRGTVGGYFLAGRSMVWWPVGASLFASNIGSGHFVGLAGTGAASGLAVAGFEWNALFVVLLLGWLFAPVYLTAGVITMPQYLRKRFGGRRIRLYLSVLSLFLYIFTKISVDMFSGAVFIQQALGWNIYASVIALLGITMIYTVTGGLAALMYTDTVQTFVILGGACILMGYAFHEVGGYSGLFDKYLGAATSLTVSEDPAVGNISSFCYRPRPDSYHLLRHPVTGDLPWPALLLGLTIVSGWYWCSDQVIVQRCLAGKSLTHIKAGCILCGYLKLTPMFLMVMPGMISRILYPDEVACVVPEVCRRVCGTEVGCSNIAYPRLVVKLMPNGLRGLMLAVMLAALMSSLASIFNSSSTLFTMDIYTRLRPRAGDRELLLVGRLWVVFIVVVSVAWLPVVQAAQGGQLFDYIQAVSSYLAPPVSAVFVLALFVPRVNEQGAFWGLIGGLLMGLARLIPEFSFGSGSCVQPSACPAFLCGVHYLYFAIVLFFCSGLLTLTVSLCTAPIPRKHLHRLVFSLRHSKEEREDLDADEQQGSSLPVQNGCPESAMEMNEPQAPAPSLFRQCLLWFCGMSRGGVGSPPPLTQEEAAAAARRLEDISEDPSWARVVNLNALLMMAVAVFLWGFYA
Kind of assay: Inhibition test for sodium-dependent sugar uptake in CHO-k1 cells stably expressing human SGLT2. In kind it is cell-based. Particulars: 1 mM [14C]methyl α-D-glucopyranoside uptake, 37° C., 1 hour. As for the experimental part: as §1, §2, §3, §4, §5

Molecules are shown by their SMILES.

As to `CCOc1ccc(Cc2cc([C@@H]3S[C@H](CO)[C@@H](O)[C@H](O)[C@H]3O)c(O)cc2C)cc1` [Compound 98, reference compound], the “Intensity of hypoglycemic effect” value in the assay with db/db mice is 35.0%.

Turning to `Cc1ccc(Cc2cc([C@@H]3S[C@H](CO)[C@@H](O)[C@H](O)[C@H]3O)c(O)cc2C)cc1` [Compound I, (1S)-1,5-anhydro-1-[4-methyl-5-(4-methylbenzyl)-2-hydroxyphenyl]-1-thio-D-glucitol], the “Intensity of hypoglycemic effect” value in the assay with db/db mice was 48.5%. Also, the values for the IC50 at human SGLT1 and against human SGLT2 were 17 nM and 20 nM, respectively.

As for `CSc1ccc(Cc2cc([C@@H]3S[C@H](CO)[C@@H](O)[C@H](O)[C@H]3O)c(O)cc2C)cc1` [Compound IV, (1S)-1,5-anhydro-1-[2-hydroxy-4-methyl-5-[4-(methylsulfanyl)benzyl]phenyl]-1-thio-D-glucitol], the figures for the half-maximal inhibitory concentration (IC50) at human SGLT1 and on human SGLT2 were 27 nM and 10 nM, respectively.

With `COc1ccc(Cc2cc([C@@H]3S[C@H](CO)[C@@H](O)[C@H](O)[C@H]3O)c(O)cc2C)cc1` [II, (1S)-1,5-anhydro-1-[5-(4-methoxybenzyl)-4-methyl-2-hydroxyphenyl]-1-thio-D-glucitol], the “Intensity of hypoglycemic effect” value in the assay with db/db mice is 49.7%. Moreover, the IC50 against human SGLT1 came to 32 nM; at human SGLT2, 20 nM.

`CCc1ccc(Cc2cc([C@@H]3S[C@H](CO)[C@@H](O)[C@H](O)[C@H]3O)c(O)cc2C)cc1` [III, (1 S)-1,5-anhydro-1-[5-(4-ethylbenzyl)-2-hydroxy-4-methylphenyl]-1-thio-D-glucitol]: the half-maximal inhibitory concentration (IC50) at human SGLT1 turned out to be 32 nM; against human SGLT2 it was 12 nM.

As for `Cc1ccc(Cc2cc([C@@H]3S[C@H](CO)[C@@H](O)[C@H](O)[C@H]3O)c(O)cc2Cl)cc1` [V, (1S)-1,5-anhydro-1-[4-chloro-2-hydroxy-5-(4-methylbenzyl)phenyl]-1-thio-D-glucitol], the figures for the IC50 at human SGLT1 and against human SGLT2 were 19 nM and 11 nM, respectively.

Regarding `CCc1ccc(Cc2cc([C@@H]3S[C@H](CO)[C@@H](O)[C@H](O)[C@H]3O)c(O)cc2Cl)cc1` [VI, (1S)-1,5-anhydro-1-[4-chloro-2-hydroxy-5-(4-ethylbenzyl)phenyl]-1-thio-D-glucitol], the results for the concentration for half-maximal inhibition (IC50) at human SGLT1 and on human SGLT2 were 29 nM and 8 nM, respectively.

Regarding `COc1ccc(Cc2cc([C@@H]3S[C@H](CO)[C@@H](O)[C@H](O)[C@H]3O)c(O)cc2Cl)cc1` [VII, (1S)-1,5-anhydro-1-[4-chloro-2-hydroxy-5-(4-methoxybenzyl)phenyl]-1-thio-D-glucitol], the IC50 against human SGLT1 is 33 nM; at human SGLT2 it was 13 nM.
